pIC50, pKi: −log10 of the molar value. Bounds are passed on as bounds.

This note sets out measurements from ChEMBL document CHEMBL1667811, “Influence of pKa on the biotransformation of indene H1-antihistamines by CYP2D6” (Bioorg Med Chem Lett, 2011).

For series [1], the target named is Histamine H1 receptor (Homo sapiens, UniProt P35367). The experiment in a line: Binding affinity to histamine H1 receptor.
Series [2] has as its target Cytochrome P450 3A4 (Homo sapiens, UniProt P08684).
Series [3] has as its target Cytochrome P450 2D6 (Homo sapiens, UniProt P10635).
The target of series [4] is hERG (KCNH2) (Homo sapiens, UniProt Q12809). The experiment in a line: Displacement of labeled dofetilide from human ERG at 3 uM. To be noted: probe labeled dofetilide.
Series [5] can be described thus: Drug uptake in rat brain at 1 mg/kg, iv after 4 hrs. Type of series: ADME, organism-based. On the set-up: dose 1 mg/kg, route intravenous. The settings on record: read-out: Drug uptake.
Series [6] is described as follows: Ratio of drug level in brain to plasma in rat at 1 mg/kg, iv after 4 hrs. To be noted: read-out: BPR. On the set-up: dose 1 mg/kg, route intravenous. The class given is ADME, organism-based.

Cytochrome P450 2D6, sequence (P10635 whole entry): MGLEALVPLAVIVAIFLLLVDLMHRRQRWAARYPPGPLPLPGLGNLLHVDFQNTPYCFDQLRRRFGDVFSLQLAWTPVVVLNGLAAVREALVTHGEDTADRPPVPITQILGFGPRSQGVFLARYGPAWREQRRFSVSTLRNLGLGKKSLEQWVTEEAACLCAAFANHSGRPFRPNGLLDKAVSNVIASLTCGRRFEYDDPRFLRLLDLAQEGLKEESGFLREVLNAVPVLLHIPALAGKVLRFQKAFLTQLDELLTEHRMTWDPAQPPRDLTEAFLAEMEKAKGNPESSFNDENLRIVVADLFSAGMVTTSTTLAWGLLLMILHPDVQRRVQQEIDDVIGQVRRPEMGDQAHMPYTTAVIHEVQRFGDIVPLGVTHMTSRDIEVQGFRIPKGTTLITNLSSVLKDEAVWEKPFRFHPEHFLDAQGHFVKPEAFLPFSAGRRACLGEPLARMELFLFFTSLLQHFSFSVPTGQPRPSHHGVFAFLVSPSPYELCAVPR
hERG (KCNH2), sequence (Q12809 whole entry): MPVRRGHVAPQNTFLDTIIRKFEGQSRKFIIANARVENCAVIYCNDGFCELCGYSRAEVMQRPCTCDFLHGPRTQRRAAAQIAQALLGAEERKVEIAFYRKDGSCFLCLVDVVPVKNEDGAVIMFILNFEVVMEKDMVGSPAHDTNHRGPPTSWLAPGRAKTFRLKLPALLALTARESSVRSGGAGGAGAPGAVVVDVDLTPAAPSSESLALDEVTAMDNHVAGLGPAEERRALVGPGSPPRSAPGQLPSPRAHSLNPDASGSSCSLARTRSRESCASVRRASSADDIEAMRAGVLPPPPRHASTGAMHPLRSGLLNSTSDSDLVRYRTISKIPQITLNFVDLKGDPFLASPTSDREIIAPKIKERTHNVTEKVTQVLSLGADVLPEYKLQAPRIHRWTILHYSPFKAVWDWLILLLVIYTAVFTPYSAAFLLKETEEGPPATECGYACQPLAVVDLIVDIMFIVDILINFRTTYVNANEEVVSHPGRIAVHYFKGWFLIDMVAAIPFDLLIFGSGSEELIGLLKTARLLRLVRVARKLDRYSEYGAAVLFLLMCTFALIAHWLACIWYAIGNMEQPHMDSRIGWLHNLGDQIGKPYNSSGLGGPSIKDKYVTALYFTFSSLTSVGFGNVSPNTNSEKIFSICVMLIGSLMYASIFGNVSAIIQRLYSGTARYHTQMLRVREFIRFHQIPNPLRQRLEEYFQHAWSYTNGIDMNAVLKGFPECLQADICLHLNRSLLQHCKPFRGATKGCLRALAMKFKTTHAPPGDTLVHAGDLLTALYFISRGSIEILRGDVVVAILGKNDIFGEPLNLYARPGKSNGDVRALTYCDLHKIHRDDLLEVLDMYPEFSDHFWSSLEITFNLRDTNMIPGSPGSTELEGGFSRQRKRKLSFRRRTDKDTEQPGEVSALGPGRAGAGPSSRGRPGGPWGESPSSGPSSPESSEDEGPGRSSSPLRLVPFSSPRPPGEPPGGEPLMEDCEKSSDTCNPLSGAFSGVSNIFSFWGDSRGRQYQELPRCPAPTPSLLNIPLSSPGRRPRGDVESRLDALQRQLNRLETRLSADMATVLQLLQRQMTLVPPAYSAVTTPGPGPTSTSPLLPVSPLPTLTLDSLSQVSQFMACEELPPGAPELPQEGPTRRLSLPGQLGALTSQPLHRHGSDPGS
Cytochrome P450 3A4, sequence (P08684 whole entry): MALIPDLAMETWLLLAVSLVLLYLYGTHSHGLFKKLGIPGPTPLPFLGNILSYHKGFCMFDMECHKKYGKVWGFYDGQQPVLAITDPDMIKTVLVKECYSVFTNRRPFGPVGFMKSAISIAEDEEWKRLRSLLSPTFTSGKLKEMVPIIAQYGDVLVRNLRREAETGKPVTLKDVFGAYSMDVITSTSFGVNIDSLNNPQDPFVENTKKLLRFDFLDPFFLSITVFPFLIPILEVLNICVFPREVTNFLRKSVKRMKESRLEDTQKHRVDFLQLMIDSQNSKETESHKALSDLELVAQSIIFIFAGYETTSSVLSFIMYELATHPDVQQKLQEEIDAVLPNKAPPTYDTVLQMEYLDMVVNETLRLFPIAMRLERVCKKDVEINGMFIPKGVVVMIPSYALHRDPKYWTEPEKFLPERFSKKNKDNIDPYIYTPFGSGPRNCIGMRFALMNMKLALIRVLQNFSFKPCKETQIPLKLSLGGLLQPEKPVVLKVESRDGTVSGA
Histamine H1 receptor, sequence (P35367 whole entry): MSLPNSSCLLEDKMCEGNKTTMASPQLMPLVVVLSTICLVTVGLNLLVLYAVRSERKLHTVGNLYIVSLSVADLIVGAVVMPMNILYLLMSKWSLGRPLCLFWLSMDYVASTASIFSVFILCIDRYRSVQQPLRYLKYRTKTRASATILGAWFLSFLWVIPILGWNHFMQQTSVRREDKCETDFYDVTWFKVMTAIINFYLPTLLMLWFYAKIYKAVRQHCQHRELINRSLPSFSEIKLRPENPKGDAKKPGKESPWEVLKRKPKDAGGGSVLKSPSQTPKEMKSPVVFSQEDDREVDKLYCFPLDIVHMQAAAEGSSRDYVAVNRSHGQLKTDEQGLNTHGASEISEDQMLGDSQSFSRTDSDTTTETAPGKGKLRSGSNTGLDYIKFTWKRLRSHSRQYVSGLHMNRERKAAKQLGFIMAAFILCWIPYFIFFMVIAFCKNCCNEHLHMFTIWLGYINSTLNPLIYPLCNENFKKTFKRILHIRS

Regarding `C[C@H](C1=C(CCN(C)CCF)Cc2ccccc21)c1cnccn1`, in series [1], the pKi was 7.89. Moreover, the pIC50 in series [2] was below 5.00; in series [3], 5.58. The inhibition at 3 µM in series [4] was found to be 0%.

Molecule `C[C@H](C1=C(CCN(C)Cc2cnccn2)Cc2ccccc21)c1cnccn1` had a pKi in series [1] of 7.61. Further, the pIC50 in series [2] and in series [3] was below 5.00 in each case. In series [4], this molecule registered an inhibition at 3 µM of 0%.

The molecule `FC1(F)CN(CCC2=C(Cc3cnccn3)c3ccccc3C2)C1` showed a pKi in series [1] of 5.34. In addition, the pIC50 in series [3] was below 5.00. This molecule also came in with an inhibition at 3 µM in series [4] of 0%.

For the molecule `C[C@H](C1=C(CCN(C)Cc2ccco2)Cc2ccccc21)c1cnccn1`, in series [1], the negative-log Ki (pKi) was 8.09. The pIC50 in series [2] is 5.56; in series [3], 5.36. Also, the inhibition at 3 µM in series [4] was 0%.

`CCCN(C)CCC1=C(Cc2cnccn2)c2ccccc2C1` showed a pKi in series [1] of 7.39. The values for the negative logarithm of the IC50 (pIC50) in series [2] and in series [3] were 5.39 and 6.01, respectively. Moreover, testing at 3 µM in series [4] gave an inhibition of 0%.

In turn, `FC1(F)CCN(CCC2=C(Cc3cnccn3)c3ccccc3C2)C1` had a pKi in series [1] of 6.60. Besides, the pIC50 in series [2] is 5.85; in series [3], 5.12. The same molecule showed an inhibition at 3 µM in series [4] of 0%.

Take `c1ccc2c(c1)CC(CCN1CCCC1)=C2Cc1cnccn1`: the pKi in series [1] is 8.55. Moreover, the pIC50 in series [2] is below 5.00; in series [3], 5.47. Besides, in series [4], the inhibition at 3 µM stood at 0%.

Take `c1ccc2c(c1)CC(CCN1CCC1)=C2Cc1cnccn1`: the pKi in series [1] was 8.37. Further, the figures for the pIC50 in series [2] and in series [3] were below 5.00 and 5.05, respectively. In series [4], this molecule had an inhibition at 3 µM of 0%.

As to `C[C@H](C1=C(CCN(C)Cc2ccncc2)Cc2ccccc21)c1cnccn1`, the pKi in series [1] is 8.31. In series [3], the negative logarithm of the IC50 (pIC50) was 5.10. For the same molecule, the inhibition at 3 µM in series [4] was 0%.

Take `CN(CCF)CCC1=C(Cc2cnccn2)c2ccccc2C1`: the negative-log IC50 (pIC50) in series [2] was below 5.00; in series [3], 5.51. The inhibition at 3 µM in series [4] was 0%.

`FC1CCN(CCC2=C(Cc3cnccn3)c3ccccc3C2)C1` (stereo unspecified) had a pKi in series [1] of 7.98. The pIC50 in series [2] is below 5.00; in series [3] it was 5.37. The inhibition at 3 µM in series [4] turned out to be 0%. In series [5], the concentration at 4 h amounted to 57 ng/g. For the same molecule, the Kp at 4 h in series [6] was 3.9.

On to `C[C@H](C1=C(CCN(C)CC2CCOCC2)Cc2ccccc21)c1cnccn1`, for which the pKi in series [1] is 7.82. For the same molecule, the values for the pIC50 in series [2] and in series [3] were below 5.00 and 5.03, respectively. This molecule also yielded an inhibition at 3 µM in series [4] of 0%.

For the molecule `C[C@H](C1=C(CCN(C)CCC#N)Cc2ccccc21)c1cnccn1`, the pKi in series [1] is 6.96. The pIC50 in series [2] and in series [3] was below 5.00 throughout. Also, 3 µM produced 0% inhibition in series [4].

Take `C[C@H](C1=C(CCN(C)Cc2ncc[nH]2)Cc2ccccc21)c1cnccn1`: in series [1], the pKi was 8.06. For the same molecule, the pIC50 in series [2] was 5.35; in series [3] it was 5.23. This molecule yielded an inhibition at 3 µM in series [4] of 0%.

The molecule `C[C@H](C1=C(CCN(C)Cc2ccccn2)Cc2ccccc21)c1cnccn1` had a pKi in series [1] of 7.86. In addition, the values for the pIC50 in series [2] and in series [3] were 5.32 and 5.24, respectively. 3 µM produced 0% inhibition in series [4].

Consider `C[C@H](C1=C(CCN(C)Cc2nccn2C)Cc2ccccc21)c1cnccn1`, for which, in series [1], the pKi is 7.55. In addition, the pIC50 was 5.81 in series [2] and 5.25 in series [3]. In series [4], this molecule had an inhibition at 3 µM of 0%.

As to `C[C@H](C1=C(CCN(C)Cc2ncco2)Cc2ccccc21)c1cnccn1`, in series [1], the pKi is 6.79. The pIC50 was 5.32 in series [2] and below 5.00 in series [3]. In series [4], this molecule had an inhibition at 3 µM of 0%.

The molecule `C[C@H](C1=C(CCN(C)CCC(F)(F)F)Cc2ccccc21)c1cnccn1` had a pKi in series [1] of 7.04. Besides, the pIC50 was below 5.30 in series [2] and 5.14 in series [3]. This molecule yielded an inhibition at 3 µM in series [4] of 0%.

Take `FC1CN(CCC2=C(Cc3cnccn3)c3ccccc3C2)C1`: in series [1], the negative-log Ki (pKi) is 7.31. The negative-log IC50 (pIC50) in series [2] was below 5.00; in series [3], 5.19. In series [4], this molecule returned an inhibition at 3 µM of 0%.

In series [1], `CCN(C)CCC1=C(Cc2cnccn2)c2ccccc2C1` showed a pKi of 8.14. The pIC50 was below 5.00 in series [2] and 5.36 in series [3]. Moreover, the inhibition at 3 µM in series [4] was 0%.

`C[C@H](C1=C(CCN(C)CC#N)Cc2ccccc21)c1cnccn1` had a pKi in series [1] of 7.49. Further, the pIC50 in series [2] and in series [3] was below 5.00 in each case. Besides, the inhibition at 3 µM in series [4] is 0%.

For the molecule `C[C@H](C1=C(CCN(C)Cc2nccs2)Cc2ccccc21)c1cnccn1`, the pKi in series [1] was 7.32. Further, the values for the pIC50 in series [2] and in series [3] were 5.55 and below 5.00, respectively. The molecule further had an inhibition at 3 µM in series [4] of 0%.

Consider `C[C@H](C1=C(CCN(C)Cc2cccs2)Cc2ccccc21)c1cnccn1`, for which the pKi in series [1] is 8.17. The pIC50 in series [2] was 5.74; in series [3], 5.85. Also, in series [4], testing at 3 µM gave an inhibition of 0%.
